Measurements from patent US20250296938A1, “Compounds that Interact with the Ras Superfamily for the Treatment of Cancers, Inflammatory Diseases, Rasopathies, and Fibrotic Disease” (SHY Therapeutics, LLC, priority 2018, published 2025).

Experiments:
[1] = test system: TNF-α; experiment: Mouse TNF alpha quantification assay, LPS-stimulated RAW 264.7 macrophages; format: cell-based; details: for inhibition at 30 µM: RAW264.7, 30 μM, LPS-stimulated RAW 264.7 macrophages; for inhibition at 10 µM: RAW264.7, 10 μM, LPS (100 ng/ml) added concurrently, 5 hours, RAW 264.7, read-out: TNFα % Inhibition
Procedure: (§1) Cell lines: Abelson murine leukemia virus transformed macrophage cell line RAW 264.7 was purchased from ATCC and grown in complete DMEM-High Glucose medium supplemented with penicillin (100 U/mL), streptomycin (100 μg/mL), and 10% heat-inactivated FBS at 37° C. in a humidified incubator with 5% CO2.
(§2) Method: Cells were plated at 25000-40000 cells/well density in a 96-well plate. After a 3-hour incubation, macrophages were starved with DMEM plus 0.5% FBS overnight. The next day the small molecules to be tested were added to the cells in the final concentration of 30 μM (with 0.3% DMSO) 3 hours prior to LPS stimulation (100 ng/ml). After LPS stimulation cells were incubated at 37° C. for 16 h. Alternatively, compounds were also tested at 10 μM and LPS (100 ng/ml) was added concurrently and incubated 5 hours at 37° C. At the end of the incubation periods, culture medium was collected and production of LPS-induced TNF-α and IL-6 cytokine was measured using ELISA detection kits.
(§3) Sandwich ELISA: The ELISA Immunoassays Quantikine Mouse TNF-alpha (catalog number MTA00B) and IL6 (catalog number M6000B) were purchased from R&D Systems Inc., Minneapolis, MN. These 4.5 hours solid phase ELISAs were used to measure mouse TNF-α or IL-6 levels in macrophages culture supernatants. Assays were executed according to the manufacturer specifications.

[2] = test system: IL-6; experiment: Mouse IL6 quantification assay, LPS-stimulated RAW 264.7 macrophages; format: cell-based; details: for inhibition at 30 µM: RAW264.7, 30 μM, LPS-stimulated RAW 264.7 macrophages; for inhibition at 10 µM: RAW264.7, 10 μM, LPS (100 ng/ml) added concurrently, 5 hours, RAW 264.7
Procedure: as §1, §2, §3

SMILES	inhibition at 30 µM [1]	inhibition at 30 µM [2]	inhibition at 10 µM [1]	inhibition at 10 µM [2]
COC1CCN(c2nc(-c3nccn3C)nc3sc(-c4ccnn4C)c(-c4ccccc4)c23)C1 (stereo not drawn) [drawing 703]	0%	26 to 50%	–	–
COC1CCN(c2nc(-c3nccn3C)nc3sc(-c4cccnc4)c(-c4ccccc4)c23)C1 (stereo not drawn) [drawing 704]	76 to 100%	76 to 100%	–	–
COc1ccc(-c2sc3nc(-c4nccn4C)nc(N4CCC(OC)C4)c3c2-c2ccccc2)cn1 (stereo not drawn) [drawing 705]	76 to 100%	76 to 100%	–	–
COc1ncccc1-c1sc2nc(-c3nccn3C)nc(N3CCC(OC)C3)c2c1-c1ccccc1 (stereo not drawn) [drawing 706]	76 to 100%	76 to 100%	–	–
COC1CCN(c2nc(-c3nccn3C)nc3sc(-c4cnc(C5CC5)o4)c(-c4ccccc4)c23)C1 (stereo not drawn) [drawing 707]	26 to 50%	76 to 100%	–	–
COCCn1cc(-c2sc3nc(-c4nccn4C)nc(N4CCC(OC)C4)c3c2-c2ccccc2)cn1 (stereo not drawn) [drawing 708]	76 to 100%	76 to 100%	–	–
COC1CCN(c2nc(-c3nccn3C)nc3sc(-c4ccncc4C)c(-c4ccccc4)c23)C1 (stereo not drawn) [drawing 709]	26 to 50%	76 to 100%	–	–
COC1CCN(c2nc(-c3nccn3C)nc3sc(-c4cnn(C)c4)c(-c4ccccc4)c23)C1 (stereo not drawn) [drawing 710]	51 to 75%	26 to 50%	–	–
COC1CCN(c2nc(-c3nccn3C)nc3sc(-c4ccc(CO)cc4)c(-c4ccccc4)c23)C1 (stereo not drawn) [drawing 711]	76 to 100%	76 to 100%	–	–
COC1CCN(c2nc(-c3nccn3C)nc3sc(-c4ccc(N)nc4C)c(-c4ccccc4)c23)C1 (stereo not drawn) [drawing 712]	0%	1 to 25%	–	–
COC1CCN(c2nc(-c3nccn3C)nc3sc(-c4ccccc4CO)c(-c4ccccc4)c23)C1 (stereo not drawn) [drawing 713]	76 to 100%	76 to 100%	–	–
COc1nscc1-c1sc2nc(-c3nccn3C)nc(N3CCC(OC)C3)c2c1-c1ccccc1 (stereo not drawn) [drawing 714]	76 to 100%	76 to 100%	–	–
COC1CCN(c2nc(-c3nccn3C)nc3sc(-c4ccnc(N(C)C)c4)c(-c4ccccc4)c23)C1 (stereo not drawn) [drawing 715]	76 to 100%	76 to 100%	–	–
COC1CCN(c2nc(-c3nccn3C)nc3sc(Br)c(-c4ccccc4)c23)C1 (stereo not drawn) [drawing 716]	26 to 50%	51 to 75%	–	–
COc1ccc(-c2c(-c3cccc(OC)c3F)sc3nc(-c4nccn4C)nc(N4CCC(OC)C4)c23)cc1 (stereo not drawn) [drawing 717]	76 to 100%	76 to 100%	–	–
COCC1CN(c2nc(-c3nccn3C)nc3sc(-c4cccc(OC)c4F)c(-c4ccc(OC)cc4)c23)C1 [drawing 718]	76 to 100%	76 to 100%	–	–
COc1cccc(-c2sc3nc(-c4nccn4C)nc(N4CCC(OC)C4)c3c2-c2ccccc2)c1F (stereo not drawn) [drawing 719]	76 to 100%	76 to 100%	–	–
COc1c(O)nc(-c2ccccn2)nc1Oc1cnn(C)c1 [drawing 720]	0%	26 to 50%	–	–
COc1c(O)nc(-c2ccccn2)nc1Oc1ccc2ncccc2c1 [drawing 721]	1 to 25%	76 to 100%	–	–

SMILES	inhibition at 30 µM [1]	inhibition at 30 µM [2]	inhibition at 10 µM [1]	inhibition at 10 µM [2]
COc1c(O)nc(-c2ccccn2)nc1Oc1cccnc1 [drawing 722]	0%	51 to 75%	–	–
COc1cccc(Oc2nc(-c3ccccn3)nc(O)c2OC)c1 [drawing 723]	26 to 50%	76 to 100%	–	–
COc1ccc(Oc2nc(-c3ccccn3)nc(O)c2OC)cc1 [drawing 724]	1 to 25%	76 to 100%	–	–
COCCc1ccc(Oc2nc(-c3ccccn3)nc(O)c2OC)cc1 [drawing 725]	1 to 25%	76 to 100%	–	–
COc1c(O)nc(-c2ccccn2)nc1Oc1ccccc1 [drawing 726]	1 to 25%	76 to 100%	–	–
O=C(c1nc(-c2ccccn2)nc(O)c1O)N1CCOCC1 [drawing 728]	1 to 25%	0%	–	–
CN(Cc1ccccc1)C(=O)c1nc(-c2ccccn2)nc(O)c1O [drawing 729]	0%	1 to 25%	–	–
O=C(NCc1ccccc1)c1nc(-c2ccccn2)nc(O)c1O [drawing 730]	76 to 100%	76 to 100%	–	–
O=C(c1nc(-c2ccccn2)nc(O)c1O)N1CCCC1 [drawing 731]	1 to 25%	0%	–	–
O=C(NC1CCCC1)c1nc(-c2ccccn2)nc(O)c1O [drawing 732]	26 to 50%	76 to 100%	–	–
CC(C)CN(C)C(=O)c1nc(-c2ccccn2)nc(O)c1O [drawing 733]	0%	0%	–	–
CC(C)CNC(=O)c1nc(-c2ccccn2)nc(O)c1O [drawing 734]	26 to 50%	76 to 100%	–	–
COCCN(C)C(=O)c1nc(-c2ccccn2)nc(O)c1O [drawing 735]	1 to 25%	0%	–	–
O=C(NC1CCC1)c1nc(-c2ccccn2)nc(O)c1O [drawing 736]	1 to 25%	76 to 100%	–	–
CC(C)NC(=O)c1nc(-c2nccn2C)nc(O)c1O [drawing 737]	1 to 25%	0%	–	–
CCN(CC)C(=O)c1nc(-c2nccn2C)nc(O)c1O [drawing 738]	1 to 25%	0%	–	–
Cn1ccnc1-c1nc(O)c(O)c(C(=O)N2CCCC2)n1 [drawing 739]	1 to 25%	0%	–	–
Cn1ccnc1-c1nc(O)c(O)c(C(=O)NC2CCCC2)n1 [drawing 740]	1 to 25%	0%	–	–
Cn1ccnc1-c1nc(O)c(O)c(C(=O)N2CCCCC2)n1 [drawing 741]	1 to 25%	0%	–	–

SMILES	inhibition at 30 µM [1]	inhibition at 30 µM [2]	inhibition at 10 µM [1]	inhibition at 10 µM [2]
Cn1ccnc1-c1nc(O)c(O)c(C(=O)NC2CCC2)n1 [drawing 742]	1 to 25%	0%	–	–
COC(=O)c1nc(-c2nccn2C)nc(O)c1O [drawing 743]	0%	0%	–	–
COc1c(O)nc(-c2ccccn2)nc1Oc1ccc(C(=O)N(C)C)cc1 [drawing 744]	–	–	1 to 25%	1 to 25%
COc1c(O)nc(-c2ccccn2)nc1Nc1ccccc1 [drawing 745]	–	–	1 to 25%	76 to 100%
CCn1cc(Nc2nc(-c3ccccn3)nc(O)c2OC)cn1 [drawing 746]	–	–	1 to 25%	76 to 100%
CCOc1cccc(Nc2nc(-c3ccccn3)nc(O)c2OC)c1 [drawing 747]	–	–	1 to 25%	51 to 75%
COc1cccc(-c2sc3nc(-c4nccn4C)nc(NC4CCC(OC)C4)c3c2-c2ccccc2)c1F (stereo not drawn) [drawing 748]	–	–	76 to 100%	76 to 100%
COc1cccc(-c2sc3nc(-c4nccn4C)nc(N[C@@H]4CC[C@H](OC)C4)c3c2-c2ccccc2)c1F [drawing 749]	–	–	1 to 25%	26 to 50%
COC1CCC(Nc2nc(-c3nccn3C)nc3sc(-c4cccc(O)c4F)c(-c4ccccc4)c23)C1 (stereo not drawn) [drawing 750]	–	–	0%	0%
COc1c(F)cccc1-c1sc2nc(-c3nccn3C)nc(NC3CCC(OC)C3)c2c1-c1ccccc1 (stereo not drawn) [drawing 751]	–	–	0%	1 to 25%
COc1c(F)cccc1-c1sc2nc(-c3nccn3C)nc(N[C@@H]3CC[C@H](OC)C3)c2c1-c1ccccc1 [drawing 752]	–	–	0%	0%
COC1CCC(Nc2nc(-c3nccn3C)nc3sc(-c4cccc5[nH]ncc45)c(-c4ccccc4)c23)C1 (stereo not drawn) [drawing 753]	–	–	51 to 75%	76 to 100%
CO[C@H]1CC[C@@H](Nc2nc(-c3nccn3C)nc3sc(-c4cccc5[nH]ncc45)c(-c4ccccc4)c23)C1 [drawing 754]	–	–	76 to 100%	76 to 100%
COC1CCN(c2nc(-c3nccn3C)nc3sc(-c4cccc(O)c4F)c(-c4ccccc4)c23)C1 (stereo not drawn) [drawing 755]	–	–	1 to 25%	26 to 50%
COc1cccc(-c2sc3nc(-c4nccn4C)nc(N[C@H]4C[C@@H](OC)C4)c3c2-c2ccccc2)c1F [drawing 756]	–	–	51 to 75%	76 to 100%
CO[C@H]1C[C@@H](Nc2nc(-c3nccn3C)nc3sc(-c4cnn(C)c4)c(-c4ccccc4)c23)C1 [drawing 757]	–	–	1 to 25%	51 to 75%
COc1cccc(-c2sc3nc(-c4nccn4C)nc(NC4CCC(OC)C4)c3c2C)c1F (stereo not drawn) [drawing 758]	–	–	0%	1 to 25%
COc1cccc(-c2sc3nc(-c4nccn4C)nc(N[C@@H]4CC[C@H](OC)C4)c3c2C)c1F [drawing 759]	–	–	1 to 25%	1 to 25%
COC1CCC(Nc2nc(-c3nccn3C)nc3sc(-c4cccc5[nH]ncc45)c(C)c23)C1 (stereo not drawn) [drawing 760]	–	–	1 to 25%	51 to 75%
